Measurements: US6338946B1, “Method for assaying immunosuppressant” (Fujisawa Pharmaceutical Co., Ltd., priority 1994, dated 2002)

Tests used:
[1] = target: T1, complex of FKBP-12, bovine calcineurin, bovine calmodulin and calcium ion (UniProt P48452+P62942+P63099); experiment: Complex formation assay with solid-phase FKBP-12, detected by anti-calcineurin enzyme immunoassay (fluorometry); type: binding, human FKBP-12; bovine calcineurin and calmodulin; conditions: for Concentration dependence of fluorescence intensity (in words): Table 1 concentration series; for Complex forming activity (relative %): relative to FK506 = 100, calculated from Table 1 data
T1 construct: made in house; host or cells: E. coli HB101 (vector pFKBP333, tryptophan promoter)
Method: The plate was then washed 3 times with the same phosphate buffer solution as used in Preparation 1. FKBP-12 was thus bound to each well. An assay buffer (300 μl) having the composition shown below was added to each well and, after 15 minutes, it was removed, to block residual protein binding sites in each well. […] A solution (5 mg/ml) of a crude product, prepared by the conventional method, in 20 mM Tris-hydrochloride (pH 7.0) was 40-fold diluted with the above-mentioned assay buffer. Commercial bovine calmodulin was appropriately diluted with the above-mentioned assay buffer (to give a final concentration of 95 nM in the well). A methanol solution (1 mg/ml) of FK506 was appropriately diluted with the above-mentioned assay buffer. (3) Each well was washed (4 times) with the same buffer as the above-mentioned assay buffer except that it was free of bovine serum albumin and, then, an appropriate dilution (100 μl), in the assay buffer, of a rabbit polyclonal antibody recognizing the calcineurin Aα chain as obtained by the known method described, for example, in J. Neurochem., 58, 1643-1651 (1992) was added to each well, and the reaction was allowed to proceed at room temperature for 1 hour. (4) Each well was washed (4 times) with the same buffer as the above-mentioned assay buffer except that it was free of bovine serum albumin and, then, an appropriate dilution (100 μl), in the assay buffer, of alkaline phosphatase-labeled anti-rabbit IgG (Vector Laboratories) was added to each well. (5) Each well was washed (4 times) with the same buffer as the assay buffer except that it was free of bovine serum albumin and, then, 200 μl of a 4-methylumbelliferyl phosphate (hereinafter, 4-MU) substrate solution (1 mM), prepared as described below, was added to each well and, after the lapse of 20 minutes at room temperature, fluorometry (excitation wavelength 360 nm; emission wavelength 460 nm) was carried out using Cytofluor 2350 (trademark, Millipore Co. Ltd, USA). […] Ltd) was prepared with water and further diluted with a buffer solution (10 mM, pH 10.0) comprising diethanolamine (0.7 ml/l) and magnesium chloride hexahydrate (0.1 g/l) to give a 1 mM 4-MU substrate solution. Using the metabolites M-II and M-III shown below, which are already known as metabolites obtainable upon treatment of FK506 with rat liver microsome, as described, for example, in Drug Metabolism and Disposition, 21 (6), 971-977, quantitative analysis was carried out in the same manner as in Example 1.

FKBP-12 = FKBP-12 (Homo sapiens, UniProt P62942); experiment: FKBP-12 binding activity measurement using 3H-dihydro-FK506; conditions: for FKBP-12 binding activity (relative %): relative to FK506 = 100
Method: (1) The FKBP-12 binding activity measurement was carried out in the same manner as described in Clinical Chemistry, 38/7, 1307-1310 (1992), using ^3H-dihydro-FK506, FKBP-12, dextran charcoaled, etc.

[2] = tested on: mixed lymphocyte reaction; experiment: in vitro mixed lymphocyte reaction (MLR) test; type: cell-based; conditions: for Immunosuppressive activity (in words): MLR; for Immunosuppressive activity (MLR) (relative %): relative to FK506 = 100
Method: (2) The immunosuppressive activity was measured by the well-known in vitro mixed lymphocyte reaction (MLR) test described, for example, in European Patent Application EP-0184162-A2, page 67.

Sequence of FKBP-12 (P62942 whole entry): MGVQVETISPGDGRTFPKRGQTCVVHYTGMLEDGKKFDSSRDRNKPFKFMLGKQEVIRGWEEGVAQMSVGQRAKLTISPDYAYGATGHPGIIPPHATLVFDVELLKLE

Row | Compound | Detection by the complex assay method (in words) [1] | Concentration dependence of fluorescence intensity (in words) [1] | Complex forming activity (relative %) [1] [relative %] | FKBP-12 binding activity (relative %) (FKBP-12) | Immunosuppressive activity (in words) [2] | Immunosuppressive activity (MLR) (relative %) [2] [relative %] | FKBP-12 binding activity (in words) (FKBP-12)
1 | C=CCC1/C=C(\C)CC(C)CC(OC)C2OC(O)(C(=O)C(=O)N3CCCCC3C(=O)OC(/C(C)=C/C3CCC(O)C(O)C3)C(C)C(O)CC1=O)C(C)CC2OC (stereo not shown) [M-II] | can be detected | give fluorescence intensities depending on their concentrations | 79.7 | 14.2 | have immunosuppressive activity | 100 | 
2 | C=CC[C@@H]1/C=C(\C)C[C@H](C)C[C@H](OC)[C@H]2O[C@@](O)(C(=O)C(=O)N3CCCC[C@H]3C(=O)O[C@H](/C(C)=C/[C@@H]3CC[C@@H](O)[C@H](OC)C3)[C@H](C)[C@@H](O)CC1=O)[C@H](C)C[C@@H]2OC [FK506, 17-Allyl-1,14-dihydroxy-12-[2-(4-hydroxy-3-methoxycyclohexyl)-1-methylvinyl]-23,25-dimethoxy-13,19,21,27-tetramethyl-11,28-dioxa-4-azatricyclo[22.3.1.0^4,9]octacos-18-ene-2,3,10,16-tetraone] | can be detected | give fluorescence intensities depending on their concentrations | 100 | 100 | have immunosuppressive activity | 100 | 
3 | C=CCC1/C=C(\C)CC(C)CC(O)C2OC(O)(C(=O)C(=O)N3CCCCC3C(=O)OC(/C(C)=C/C3CCC(O)C(C)C3)C(C)C(O)CC1=O)C(C)CC2OC (stereo not shown) [M-III] | is not detected | does not give concentration-dependent values | 0 | 116.0 | has no immunosuppressive activity | 0 | has FKBP-12 binding activity
